Measurements taken from patent US12070509B2, “Nucleic acids and methods of treatment for cystic fibrosis” (Arcturus Therapeutics, Inc., priority 2020, dated 2024).

Biological target: T1, CFTR channels (Homo sapiens, UniProt P13569)
T1 construct: 1835; Cap1; TEV; Yes; XBG; 53; expressed in transfected cells; host or cells: FRT (Fischer rat thyroid) cells in air-liquid interface culture, transfected with unformulated hCFTR mRNA
Assay: Transepithelial conductance (Gt) in Air-Liquid Interface culture of transfected FRT cells
Format: cell-based
Settings: FRT cells transfected with constructs 2099.1 and 1835.1 (FIG. 12); sequential Forskolin, VX770, Inh-172
Description: Further studies were conducted to assess the activity of hCFTR proteins expressed by selected mRNA constructs and whether these can properly open and close to allow proper ion transport. In these studies, an Air-Liquid Interface (ALI) cell culture model of FRT cells was used to transfect an unformulated subset of codon-optimized hCFTR mRNAs at different doses ranging from 0.5 μg-2 μg of mRNA (the 2 μg dose is not shown) into the FRT cells. ALI is a method of cell culture by which polarized cells are generated with their basal surfaces in contact with media, and the top of the cellular layer is exposed to the air. This model helps to mimic the cellular structure of in vivo airways.
At 24 hours post-transfection, transepithelial conductance (Gt) of the cells over time was measured as an indicator of CFTR activity. Initially, Gt was measured with the transfected or control cells unperturbed. Then, a sequential process of CFTR activation (channel opening), enhancement (gating promotion) and closing of the CFTR channels was performed. The hCFTR constructs used in this study were 1835.1 (SEQ ID NO: 53), 2093.1 (SEQ ID NO: 66), 2095.1 (SEQ ID NO: 68), 2096.1 (SEQ ID NO: 69), and 2099.1 (SEQ ID NO: 72). In addition, controls were performed using a reference sequence of construct 764.1 (SEQ ID NO: 47) and untransfected cells. […]

T1 sequence (P13569 whole entry): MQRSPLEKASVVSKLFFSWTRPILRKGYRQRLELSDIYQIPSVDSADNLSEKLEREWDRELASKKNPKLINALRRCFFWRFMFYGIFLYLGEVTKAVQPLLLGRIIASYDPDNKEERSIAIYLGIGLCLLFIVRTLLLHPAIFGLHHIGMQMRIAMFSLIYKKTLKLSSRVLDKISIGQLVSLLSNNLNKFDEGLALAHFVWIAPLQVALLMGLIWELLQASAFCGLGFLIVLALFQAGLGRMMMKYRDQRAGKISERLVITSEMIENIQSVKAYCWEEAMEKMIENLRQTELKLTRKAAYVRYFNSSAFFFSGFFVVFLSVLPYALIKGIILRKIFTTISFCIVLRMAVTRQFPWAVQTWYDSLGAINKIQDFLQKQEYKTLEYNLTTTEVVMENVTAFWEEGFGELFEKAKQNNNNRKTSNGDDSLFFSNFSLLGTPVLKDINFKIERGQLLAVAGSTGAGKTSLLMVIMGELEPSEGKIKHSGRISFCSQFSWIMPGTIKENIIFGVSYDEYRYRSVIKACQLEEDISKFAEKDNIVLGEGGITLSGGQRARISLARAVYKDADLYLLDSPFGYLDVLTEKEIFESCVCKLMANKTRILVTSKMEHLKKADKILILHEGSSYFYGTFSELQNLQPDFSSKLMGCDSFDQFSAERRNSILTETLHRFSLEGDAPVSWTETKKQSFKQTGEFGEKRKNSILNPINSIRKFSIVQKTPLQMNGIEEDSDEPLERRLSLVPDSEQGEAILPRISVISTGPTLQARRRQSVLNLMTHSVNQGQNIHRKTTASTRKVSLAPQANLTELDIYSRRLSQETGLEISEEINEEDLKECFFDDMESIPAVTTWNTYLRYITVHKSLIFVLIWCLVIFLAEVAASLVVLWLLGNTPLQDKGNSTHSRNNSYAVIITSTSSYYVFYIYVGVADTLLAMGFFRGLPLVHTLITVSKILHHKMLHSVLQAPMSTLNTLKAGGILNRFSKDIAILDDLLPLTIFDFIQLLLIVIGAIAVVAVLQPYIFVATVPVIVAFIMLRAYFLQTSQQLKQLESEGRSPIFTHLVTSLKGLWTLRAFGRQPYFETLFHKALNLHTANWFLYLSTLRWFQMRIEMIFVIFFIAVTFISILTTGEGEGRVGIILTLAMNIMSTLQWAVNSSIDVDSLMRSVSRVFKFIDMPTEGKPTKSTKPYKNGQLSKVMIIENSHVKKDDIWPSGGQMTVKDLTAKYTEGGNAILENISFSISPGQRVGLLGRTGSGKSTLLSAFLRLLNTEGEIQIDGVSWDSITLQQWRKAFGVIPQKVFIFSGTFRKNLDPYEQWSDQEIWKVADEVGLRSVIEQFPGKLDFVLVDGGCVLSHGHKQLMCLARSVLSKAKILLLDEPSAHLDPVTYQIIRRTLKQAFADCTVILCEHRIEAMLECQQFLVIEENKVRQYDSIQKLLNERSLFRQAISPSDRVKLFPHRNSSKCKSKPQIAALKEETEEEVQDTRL

| Change in Gt on introduction of CFTR modulator | Structure (SMILES) |
| --- | --- |
| decline in Gt | O=C(O)c1ccc(C=C2SC(=S)N(c3cccc(C(F)(F)F)c3)C2=O)cc1 [Inh-172, reference compound] |
| second increase in Gt | CC(C)(C)c1cc(C(C)(C)C)c(NC(=O)c2c[nH]c3ccccc3c2=O)cc1O [VX770, reference compound] |
